pEC50: −log10 of the molar value.

The source of these data is patent publication US7846964B2, “Thiophene derivatives as spingosine-1-phosphate-1 receptor agonists” (Actelion Pharmaceuticals Ltd., priority 2005, dated 2010).

Sequence of recombinant human S1P1 receptor (P21453 whole entry): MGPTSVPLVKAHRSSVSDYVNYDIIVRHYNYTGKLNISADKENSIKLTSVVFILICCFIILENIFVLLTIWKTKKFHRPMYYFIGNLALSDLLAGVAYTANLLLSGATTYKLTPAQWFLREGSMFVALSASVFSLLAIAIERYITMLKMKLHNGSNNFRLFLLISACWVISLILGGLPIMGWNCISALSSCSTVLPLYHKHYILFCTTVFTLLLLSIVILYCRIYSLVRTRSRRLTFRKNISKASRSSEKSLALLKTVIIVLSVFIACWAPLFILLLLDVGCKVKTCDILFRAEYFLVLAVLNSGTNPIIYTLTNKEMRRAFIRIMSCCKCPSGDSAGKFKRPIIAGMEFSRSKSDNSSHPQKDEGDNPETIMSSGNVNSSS

The target in this assay is recombinant human S1P1 receptor (Homo sapiens, UniProt P21453). The assay is described as follows: GTPγS assay to determine EC50 values. In kind it is biochemical. Conditions: 35S-GTPγS binding, membrane preparations of CHO cells expressing recombinant human S1P1 receptor. The protocol:
The pH is 7.4. Test compounds are dissolved and diluted in 100% DMSO and pre-incubated at room temperature for 30 min in 150 μl of the above assay buffer, in the absence of ^35S-GTPγS. After addition of 50 μl of ^35S-GTPγS, the assay is incubated for 1 h at room temperature. […] Membrane-bound ^35S-GTPγS is measured with a TopCount from Packard Biosciences.
Specific binding is determined by subtracting non-specific binding from maximal binding. Maximal binding is the amount of cpm bound to the Multiscreen plate in the presence of 10 μM of S1P. Non-specific binding is the amount of binding in the absence of an agonist in the assay.
The EC50 values were determined according to the method described above.
(GTPγS is a poorly hydrolysed GTP analogue; its binding reports G protein activation.)
With `Cc1sc(C(=O)CCc2ccc(CC(O)CO)cc2)c2c1[C@H]1[C@@H](C2)C1(C)C` (stereo partly drawn) [Example 1, 3-[4-((2S/R)-2,3-dihydroxy-propyl)-phenyl]-1-((1aS,5aR)-1,1,2-trimethyl-1,1a,5,5a-tetrahydro-3-thia-cyclopropa[a]pentalen-4-yl)-propan-1-one], the pEC50 is 7.92.
For `Cc1sc(C(=O)CCc2ccc(CCCN)cc2)c2c1[C@H]1[C@@H](C2)C1(C)C` [Example 2] the value was 8.52.
As for `Cc1sc(C(=O)CCc2ccc(CCC(N)=O)cc2)c2c1[C@H]1[C@@H](C2)C1(C)C` [Example 13], the pEC50 is 7.89.
Regarding `Cc1sc(C(=O)CCc2ccc(C(=O)NCCN)cc2)c2c1[C@H]1[C@@H](C2)C1(C)C` [Example 31], the pEC50 is 8.22.
Take `Cc1cc(CCC(=O)c2sc(C)c3c2C[C@@H]2[C@H]3C2(C)C)ccc1OCCN(C)C` [Example 37]: the pEC50 is 7.24.
Turning to `Cc1cc(CCC(=O)c2sc(C)c3c2CC2C3C2(C)C)ccc1OCC(O)CNCCC(=O)O` (stereo not drawn) [Example 48], the negative logarithm of the EC50 (pEC50) was 8.70.
Regarding `Cc1sc(C(=O)CCc2ccc(OCC(O)CNCCC(=O)O)c(Cl)c2)c2c1C1C(C2)C1(C)C` (stereo not drawn) [Example 60], the pEC50 is 8.85.
As to `Cc1cc(CCC(=O)c2sc(C)c3c2C[C@@H]2[C@H]3C2(C)C)cc(C)c1OCC(O)CN` (stereo partly drawn) [Example 99, 3-[4-(3-amino-2-hydroxy-propoxy)-3,5-dimethyl-phenyl]-1-((1aS,5aR)-1,1,2-trimethyl-1,1a,5,5a-tetrahydro-3-thia-cyclopropa[a]pentalen-4-yl)-propan-1-one], the pEC50 was 8.96.
Turning to `COc1cc(CCC(=O)c2sc(C)c3c2CC2C3C2(C)C)cc(Cl)c1OCCN1CCC(C(=O)O)C1` (stereo not drawn) [Example 149], the pEC50 is 8.70.
Regarding `COc1cc(CCC(=O)c2sc(C)c3c2CC2C3C2(C)C)cc(Cl)c1OCC(O)CN1CCNCC1` (stereo not drawn) [Example 175], the pEC50 is 7.55.
In the case of `COCC(O)COc1c(C)cc(CCC(=O)c2sc(C)c3c2C[C@@H]2[C@H]3C2(C)C)cc1C` (stereo partly drawn) [Example 233, 3-[4-(2-Hydroxy-3-methoxy-propoxy)-3,5-dimethyl-phenyl]-1-((1aS,5aR)-1,1,2-trimethyl-1,1a,5,5a-tetrahydro-3-thia-cyclopropa[a]pentalen-4-yl)-propan-1-one], the pEC50 is 8.64.
As for `Cc1cc(CCC(=O)c2sc(C)c3c2C[C@@H]2[C@H]3C2(C)C)cc(C)c1OCC(O)CNC(=O)CN` (stereo partly drawn) [Example 234, 2-amino-N-(3-{2,6-dimethyl-4-[3-oxo-3-((1aS,5aR)-1,1,2-trimethyl-1,1a,5,5a-tetrahydro-3-thia-cyclopropa[a]pentalen-4-yl)-propyl]-phenoxy}-2-hydroxy-propyl)-acetamide], the pEC50 was 8.57.
With `Cc1cc(CCC(=O)c2sc(C)c3c2C[C@@H]2[C@H]3C2(C)C)cc(C)c1CCC(=O)NC(CO)CO` [Example 237, 3-{2,6-Dimethyl-4-[3-oxo-3-((1aS,5aR)-1,1,2-trimethyl-1,1a,5,5a-tetrahydro-3-thia-cyclopropa [a]pentalen-4-yl)-propyl]-phenyl}-N-(2-hydroxy-1-hydroxymethyl-ethyl)-propionamide], the pEC50 was 8.54.
With `Cc1cc(CCC(=O)c2sc(C)c3c2C[C@@H]2[C@H]3C2(C)C)cc(C)c1CC(O)CO` (stereo partly drawn) [Example 239, 3-[4-(2,3-dihydroxy-propyl)-3,5-dimethyl-phenyl]-1-((1aS,5aR)-1,1,2-trimethyl-1,1a,5,5a-tetrahydro-3-thia-cyclopropa[a]pentalen-4-yl)-propan-1-one], the pEC50 is 9.10.
`CCc1cc(CCC(=O)c2sc(C)c3c2CC2C3C2(C)C)cc(C)c1OCC(O)CNC(=O)CO` (stereo not drawn) [Example 244]: the pEC50 was 8.96.

What is called pEC50 is −log10 of the EC50, conventionally taken in molar units.
